Laboratory results: ChEMBL document CHEMBL4229518, “New β-lactam - Tetramic acid hybrids show promising antibacterial activities” (Bioorg Med Chem Lett, 2018)
In brackets after ≈: the same amount, converted by molar mass.

What follows are compounds tested on Staphylococcus aureus (assay: Antimicrobial activity against methicillin-susceptible Staphylococcus aureus NRS70 after 18 to 20 hrs by microbroth dilution method). Settings: not given.
Type: functional
With `CC1(C)S[C@@H]2[C@H](NC(=O)[C@H](N)c3ccccc3)C(=O)N2[C@H]1C(=O)O` [AMPICILLIN] the MIC was 25 µg/mL (≈ 71.5 µM).

These compounds were tested on Escherichia coli (assay: Antimicrobial activity against Escherichia coli ATCC 25922 after 18 to 20 hrs by microbroth dilution method). Settings: not given.
Type: functional
`CC1(C)S[C@@H]2[C@H](NC(=O)[C@H](N)c3ccccc3)C(=O)N2[C@H]1C(=O)O` [AMPICILLIN] gave an MIC of 3.13 µg/mL (≈ 8.96 µM).

The compounds below were run on Bacillus anthracis (assay: Antimicrobial activity against Bacillus anthracis Sterne 34F2 after 18 to 20 hrs by microbroth dilution method). Settings: not given.
Type: functional
`CC1(C)S[C@@H]2[C@H](NC(=O)[C@H](N)c3ccccc3)C(=O)N2[C@H]1C(=O)O` [AMPICILLIN] was tested, and the MIC was < 0.2 µg/mL.

The compounds below were run on Stenotrophomonas maltophilia (assay: Antimicrobial activity against Stenotrophomonas maltophilia ATCC 700475 after 18 to 20 hrs by microbroth dilution method). Settings: not given.
Type: functional
With `CC1(C)S[C@@H]2[C@H](NC(=O)[C@H](N)c3ccccc3)C(=O)N2[C@H]1C(=O)O` [AMPICILLIN] the MIC was 6.25 µg/mL (≈ 17.9 µM).

What follows are compounds tested on Streptococcus pneumoniae (assay: Antimicrobial activity against Streptococcus pneumoniae R6 after 18 to 20 hrs by microbroth dilution method). Settings: not given.
Type: functional
`CC1(C)S[C@@H]2[C@H](NC(=O)[C@H](N)c3ccccc3)C(=O)N2[C@H]1C(=O)O` [AMPICILLIN] was tested, and the MIC was < 0.2 µg/mL.

The compounds below were run on Escherichia coli (assay: Antimicrobial activity against Escherichia coli BW25113 after 18 to 20 hrs by microbroth dilution method). Settings: not given.
Type: functional
`CC1(C)S[C@@H]2[C@H](NC(=O)[C@H](N)c3ccccc3)C(=O)N2[C@H]1C(=O)O` [AMPICILLIN] showed an MIC of 3.13 µg/mL (≈ 8.96 µM).

Each compound was assayed on Escherichia coli (assay: Antimicrobial activity against Escherichia coli isolate SJ 5 after 18 to 20 hrs by microbroth dilution method). Settings: not given.
Type: functional
With `CC1(C)S[C@@H]2[C@H](NC(=O)[C@H](N)c3ccccc3)C(=O)N2[C@H]1C(=O)O` [AMPICILLIN] the MIC was > 200 µg/mL.

These compounds were tested on Escherichia coli (assay: Antimicrobial activity against Escherichia coli isolate SJ 1 after 18 to 20 hrs by microbroth dilution method). Settings: not given.
Type: functional
In the case of `CC1(C)S[C@@H]2[C@H](NC(=O)[C@H](N)c3ccccc3)C(=O)N2[C@H]1C(=O)O` [AMPICILLIN], the MIC was > 200 µg/mL.

These compounds were tested on Escherichia coli (assay: Antimicrobial activity against Escherichia coli ATCC 35218 expressing TEM-1 beta lactamases after 18 to 20 hrs by microbroth dilution method). Settings: not given.
Type: functional
`CC1(C)S[C@@H]2[C@H](NC(=O)[C@H](N)c3ccccc3)C(=O)N2[C@H]1C(=O)O` [AMPICILLIN] was tested, and the MIC was > 200 µg/mL.

What follows are compounds tested on Klebsiella pneumoniae (assay: Antimicrobial activity against Klebsiella pneumoniae isolate SJ 1 after 18 to 20 hrs by microbroth dilution method). Settings: not given.
Type: functional
`CC1(C)S[C@@H]2[C@H](NC(=O)[C@H](N)c3ccccc3)C(=O)N2[C@H]1C(=O)O` [AMPICILLIN] was tested, and the MIC was > 200 µg/mL.

The compounds below were run on Pseudomonas aeruginosa (assay: Antimicrobial activity against Pseudomonas aeruginosa PAO1 after 18 to 20 hrs by microbroth dilution method). Settings: not given.
Type: functional
Work on `CC1(C)S[C@@H]2[C@H](NC(=O)[C@H](N)c3ccccc3)C(=O)N2[C@H]1C(=O)O` [AMPICILLIN] yielded an MIC of 200 µg/mL (≈ 572 µM).

These compounds were tested on Escherichia coli (assay: Antimicrobial activity against Escherichia coli isolate SJ 4 after 18 to 20 hrs by microbroth dilution method). Settings: not given.
Type: functional
In the case of `CC1(C)S[C@@H]2[C@H](NC(=O)[C@H](N)c3ccccc3)C(=O)N2[C@H]1C(=O)O` [AMPICILLIN], the MIC was > 200 µg/mL.

The compounds below were run on Enterobacter cloacae (assay: Antimicrobial activity against Enterobacter cloacae ATCC 13047 after 18 to 20 hrs by microbroth dilution method). Settings: subsp. cloacae ATCC 13047.
Type: functional
`CC1(C)S[C@@H]2[C@H](NC(=O)[C@H](N)c3ccccc3)C(=O)N2[C@H]1C(=O)O` [AMPICILLIN] was tested, and the MIC was > 200 µg/mL.

The compounds below were run on Proteus mirabilis (assay: Antimicrobial activity against Proteus mirabilis ATCC 25933 after 18 to 20 hrs by microbroth dilution method). Settings: not given.
Type: functional
`CC1(C)S[C@@H]2[C@H](NC(=O)[C@H](N)c3ccccc3)C(=O)N2[C@H]1C(=O)O` [AMPICILLIN] was tested, and the MIC was < 0.2 µg/mL.

Each compound was assayed on Klebsiella pneumoniae (assay: Antimicrobial activity against Klebsiella pneumoniae isolate SJ 3 after 18 to 20 hrs by microbroth dilution method). Settings: not given.
Type: functional
Compound `CC1(C)S[C@@H]2[C@H](NC(=O)[C@H](N)c3ccccc3)C(=O)N2[C@H]1C(=O)O` [AMPICILLIN] has an MIC of 100 µg/mL (≈ 286 µM).

What follows are compounds tested on Klebsiella pneumoniae (assay: Antimicrobial activity against Klebsiella pneumoniae isolate SJ 2 after 18 to 20 hrs by microbroth dilution method). Settings: not given.
Type: functional
In the case of `CC1(C)S[C@@H]2[C@H](NC(=O)[C@H](N)c3ccccc3)C(=O)N2[C@H]1C(=O)O` [AMPICILLIN], the MIC was 25 µg/mL (≈ 71.5 µM).

The compounds below were run on Escherichia coli (assay: Antimicrobial activity against Escherichia coli isolate SJ 2 after 18 to 20 hrs by microbroth dilution method). Settings: not given.
Type: functional
For `CC1(C)S[C@@H]2[C@H](NC(=O)[C@H](N)c3ccccc3)C(=O)N2[C@H]1C(=O)O` [AMPICILLIN], the MIC was > 200 µg/mL.

These compounds were tested on Staphylococcus aureus (assay: Antimicrobial activity against methicillin-susceptible Staphylococcus aureus ATCC 29213 after 18 to 20 hrs by microbroth dilution method). Settings: not given.
Type: functional
For `CC1(C)S[C@@H]2[C@H](NC(=O)[C@H](N)c3ccccc3)C(=O)N2[C@H]1C(=O)O` [AMPICILLIN], the MIC was < 0.2 µg/mL.

These compounds were tested on Bacillus subtilis (assay: Antimicrobial activity against Bacillus subtilis ATCC 23857 after 18 to 20 hrs by microbroth dilution method). Settings: not given.
Type: functional
`CC1(C)S[C@@H]2[C@H](NC(=O)[C@H](N)c3ccccc3)C(=O)N2[C@H]1C(=O)O` [AMPICILLIN] was tested, and the MIC was < 0.2 µg/mL.

These compounds were tested on Klebsiella pneumoniae (assay: Antimicrobial activity against Klebsiella pneumoniae ATCC 33495 after 18 to 20 hrs by microbroth dilution method). Settings: not given.
Type: functional
In the case of `CC1(C)S[C@@H]2[C@H](NC(=O)[C@H](N)c3ccccc3)C(=O)N2[C@H]1C(=O)O` [AMPICILLIN], the MIC was 100 µg/mL (≈ 286 µM).

Each compound was assayed on Escherichia coli (assay: Antimicrobial activity against Escherichia coli isolate SJ 3 after 18 to 20 hrs by microbroth dilution method). Settings: not given.
Type: functional
With `CC1(C)S[C@@H]2[C@H](NC(=O)[C@H](N)c3ccccc3)C(=O)N2[C@H]1C(=O)O` [AMPICILLIN] the MIC was > 200 µg/mL.

Each compound was assayed on Streptococcus pyogenes (assay: Antimicrobial activity against Streptococcus pyogenes ATCC 700294 after 18 to 20 hrs by microbroth dilution method). Settings: M1 GAS.
Type: functional
With `CC1(C)S[C@@H]2[C@H](NC(=O)[C@H](N)c3ccccc3)C(=O)N2[C@H]1C(=O)O` [AMPICILLIN] the MIC was < 0.2 µg/mL.

The compounds below were run on Enterococcus faecalis (assay: Antimicrobial activity against Enterococcus faecalis ATCC 33186 after 18 to 20 hrs by microbroth dilution method). Settings: not given.
Type: functional
`CC1(C)S[C@@H]2[C@H](NC(=O)[C@H](N)c3ccccc3)C(=O)N2[C@H]1C(=O)O` [AMPICILLIN] was tested, and the MIC was 0.78 µg/mL (≈ 2.23 µM).

Each compound was assayed on Klebsiella pneumoniae (assay: Antimicrobial activity against Klebsiella pneumoniae isolate SJ 5 after 18 to 20 hrs by microbroth dilution method). Settings: not given.
Type: functional
`CC1(C)S[C@@H]2[C@H](NC(=O)[C@H](N)c3ccccc3)C(=O)N2[C@H]1C(=O)O` [AMPICILLIN] was tested, and the MIC was > 200 µg/mL.

What follows are compounds tested on Escherichia coli (assay: Antimicrobial activity against tolC deficient Escherichia coli JW5503-1 after 18 to 20 hrs by microbroth dilution method). Settings: not given.
Type: functional
`CC1(C)S[C@@H]2[C@H](NC(=O)[C@H](N)c3ccccc3)C(=O)N2[C@H]1C(=O)O` [AMPICILLIN] showed an MIC of 1.56 µg/mL (≈ 4.46 µM).

What follows are compounds tested on Escherichia coli (assay: Antimicrobial activity against Escherichia coli isolate SJ 6 after 18 to 20 hrs by microbroth dilution method). Settings: not given.
Type: functional
For `CC1(C)S[C@@H]2[C@H](NC(=O)[C@H](N)c3ccccc3)C(=O)N2[C@H]1C(=O)O` [AMPICILLIN], the MIC was > 200 µg/mL.

These compounds were tested on Klebsiella pneumoniae (assay: Antimicrobial activity against Klebsiella pneumoniae isolate SJ 4 after 18 to 20 hrs by microbroth dilution method). Settings: not given.
Type: functional
Work on `CC1(C)S[C@@H]2[C@H](NC(=O)[C@H](N)c3ccccc3)C(=O)N2[C@H]1C(=O)O` [AMPICILLIN] yielded an MIC of 100 µg/mL (≈ 286 µM).

These compounds were tested on Bacillus cereus (assay: Antimicrobial activity against Bacillus cereus ATCC 14579 after 18 to 20 hrs by microbroth dilution method). Settings: not given.
Type: functional
`CC1(C)S[C@@H]2[C@H](NC(=O)[C@H](N)c3ccccc3)C(=O)N2[C@H]1C(=O)O` [AMPICILLIN] was tested, and the MIC was 25 µg/mL (≈ 71.5 µM).

Each compound was assayed on Acinetobacter baumannii (assay: Antimicrobial activity against Acinetobacter baumannii ATCC 19606 after 18 to 20 hrs by microbroth dilution method). Settings: ATCC 19606 = CIP 70.34 = JCM 6841.
Type: functional
For `CC1(C)S[C@@H]2[C@H](NC(=O)[C@H](N)c3ccccc3)C(=O)N2[C@H]1C(=O)O` [AMPICILLIN], the MIC was 50 µg/mL (≈ 143 µM).
